Results from US6867208B2, “Vitronectin receptor antagonists, their preparation and their use” (Hoechst Aktiengesellschaft, priority 1996, dated 2005).

melting point: 190 °C (dec.)
SMILES: N=C(N)NC(=O)CCCn1nc2ccc(C(=O)NCC(NC(=O)OCc3ccccc3)C(=O)O)cn2c1=O (stereo not shown) [Example 6, 3-[2-(3-Guanidinocarbonyl-1-propyl)-2,3-dihydro-3-oxo-[1,2,4]triazolo[4,3-a]pyridin-6-carbonylamino]-2-[(phenylmethoxy)carbonylamino]propanoic acid]
